Legend:
[1] = pH 7, background statement; cited from earlier work
[2] = Physical stability of peptide analogues (Thioflavin T fibrillation); format: physicochemical; conditions: ThT fluorescence, 40° C., shaking, four days; pH 4 or pH 7 buffer
Experimental: General Protocols for Determination of Physical Stability of Peptide Analogues
Peptides were dissolved in buffers (50 mM sodium acetate at pH 4 or 50 mM sodium phosphate at pH 7) and incubated for one hour. The samples were then divided into two replicates of 80 μl in a black 384 well plate (μ-clear, Greiner Bio-One) and mixed with Thioflavin T (ThT) to a final concentration of 4 μM. The plate was sealed and placed in a plate reader (CLARIOstar, BMG) where the temperature was set at 40° C. during the course of the experiment. The samples were further stressed by shaking the plate at 700 rpm (linear) for five minutes before every measurement. The fluorescence was measured every 10 min for four days by exciting the ThT at 450 nm and measuring the emission at 480 nm. For each peptide, the ThT signal over time was smoothened using Local Polynomial Regression fitting (LOESS) as implemented in the statistical programming environment R. For the smoothened data, the maximum ThT signal was normalized in percent between the maximum ThT signal for hAMY and the buffer background.

Fibril formation [2] | SMILES | fibrillation at pH 7 [1]
– | CC[C@H](C)[C@H](NC(=O)[C@@H]1CCCN1C(=O)CNC(=O)[C@H](Cc1ccccc1)NC(=O)[C@H](CC(N)=O)NC(=O)[C@H](CC(N)=O)NC(=O)[C@H](CO)NC(=O)[C@H](CO)NC(=O)[C@H](Cc1c[nH]cn1)NC(=O)[C@@H](NC(=O)[C@H](CC(C)C)NC(=O)[C@H](Cc1ccccc1)NC(=O)[C@H](CC(N)=O)NC(=O)[C@H](C)NC(=O)[C@H](CC(C)C)NC(=O)[C@H](CCCNC(=N)N)NC(=O)[C@H](CCC(N)=O)NC(=O)[C@@H](NC(=O)[C@H](C)NC(=O)[C@@H]1CSSC[C@H](NC(=O)[C@@H](N)CCCCN)C(=O)N[C@@H](CC(N)=O)C(=O)N[C@@H]([C@@H](C)O)C(=O)N[C@@H](C)C(=O)N[C@@H]([C@@H](C)O)C(=O)N1)[C@@H](C)O)C(C)C)C(=O)N[C@@H](CC(C)C)C(=O)N1CCC[C@H]1C(=O)N1CCC[C@H]1C(=O)N[C@H](C(=O)N[C@@H](CC(N)=O)C(=O)N[C@H](C(=O)NCC(=O)N[C@@H](CO)C(=O)N[C@@H](CC(N)=O)C(=O)N[C@H](C(=O)N[C@@H](Cc1ccc(O)cc1)C(N)=O)[C@@H](C)O)C(C)C)[C@@H](C)O [Pramlintide] | fibrillates
No | CC[C@H](C)[C@H](NC(=O)[C@H](CCC(N)=O)NC(=O)[C@H](Cc1c[nH]cn1)NC(=O)[C@H](C)NC(=O)[C@H](CC(C)C)NC(=O)[C@H](CCCCN)NC(=O)[C@H](CCC(N)=O)NC(=O)[C@@H](NC(=O)[C@@H](NC(=O)[C@@H]1CSSC[C@H](NC(=O)CN)C(=O)N[C@@H](CCCNC(=N)N)C(=O)N[C@@H](Cc2ccccc2)C(=O)NCC(=O)N[C@@H]([C@@H](C)O)C(=O)N1)[C@@H](C)O)C(C)C)C(=O)N[C@@H](Cc1ccc(O)cc1)C(=O)N[C@@H](CCC(N)=O)C(=O)N[C@@H](Cc1ccccc1)C(=O)N[C@H](C(=O)N[C@@H](CC(=O)O)C(=O)N[C@@H](CCCCN)C(=O)N[C@@H](CC(=O)O)C(=O)N[C@@H](CCCCN)C(=O)N[C@@H](CC(=O)O)C(=O)N[C@@H](CC(N)=O)C(=O)N[C@H](C(=O)N[C@@H](C)C(=O)N1CCC[C@H]1C(=O)N[C@@H](CCCNC(=N)N)C(=O)N[C@@H](CO)C(=O)N[C@@H](CCCCN)C(=O)N[C@H](C(=O)N[C@@H](CO)C(=O)N1CCC[C@H]1C(=O)N[C@@H](CCC(N)=O)C(=O)NCC(=O)N[C@@H](Cc1ccc(O)cc1)C(N)=O)[C@@H](C)CC)C(C)C)[C@@H](C)O [SEQ ID NO: 1] | does not fibrillate
Yes | CC[C@H](C)[C@H](NC(=O)[C@H](C)NC(=O)CNC(=O)[C@H](Cc1ccccc1)NC(=O)[C@H](CC(N)=O)NC(=O)[C@H](CC(N)=O)NC(=O)[C@H](CO)NC(=O)[C@H](CO)NC(=O)[C@H](Cc1c[nH]cn1)NC(=O)[C@@H](NC(=O)[C@H](CC(C)C)NC(=O)[C@H](Cc1ccccc1)NC(=O)[C@H](CC(N)=O)NC(=O)[C@H](C)NC(=O)[C@H](CC(C)C)NC(=O)[C@H](CCCNC(=N)N)NC(=O)[C@H](CCC(N)=O)NC(=O)[C@@H](NC(=O)[C@H](C)NC(=O)[C@@H]1CSSC[C@H](NC(=O)[C@@H](N)CCCCN)C(=O)N[C@@H](CC(N)=O)C(=O)N[C@@H]([C@@H](C)O)C(=O)N[C@@H](C)C(=O)N[C@@H]([C@@H](C)O)C(=O)N1)[C@@H](C)O)C(C)C)C(=O)N[C@@H](CC(C)C)C(=O)N[C@@H](CO)C(=O)N[C@@H](CO)C(=O)N[C@H](C(=O)N[C@@H](CC(N)=O)C(=O)N[C@H](C(=O)NCC(=O)N[C@@H](CO)C(=O)N[C@@H](CC(N)=O)C(=O)N[C@H](C(=O)N[C@@H](Cc1ccc(O)cc1)C(N)=O)[C@@H](C)O)C(C)C)[C@@H](C)O [SEQ ID NO: 2] | –

Reference: US20250361281A1, “AMYLIN RECEPTOR (hAMY3R) AGONISTS WITH IMPROVED CHEMICAL STABILITY” (GUBRA A/S, priority 2022, published 2025)
